Here are results for 21 compounds from patent US11919902B2, “Aryl-bipyridine amine derivatives as phosphatidylinositol phosphate kinase inhibitors” (HiberCell, Inc., priority 2017, dated 2024).

The target in test [1] is T1, GST tagged PIP4KtypeIIB (Homo sapiens, UniProt P78356).
T1 construct: made in house; host or cells: E. coli
T1 sequence (P78356 1-416): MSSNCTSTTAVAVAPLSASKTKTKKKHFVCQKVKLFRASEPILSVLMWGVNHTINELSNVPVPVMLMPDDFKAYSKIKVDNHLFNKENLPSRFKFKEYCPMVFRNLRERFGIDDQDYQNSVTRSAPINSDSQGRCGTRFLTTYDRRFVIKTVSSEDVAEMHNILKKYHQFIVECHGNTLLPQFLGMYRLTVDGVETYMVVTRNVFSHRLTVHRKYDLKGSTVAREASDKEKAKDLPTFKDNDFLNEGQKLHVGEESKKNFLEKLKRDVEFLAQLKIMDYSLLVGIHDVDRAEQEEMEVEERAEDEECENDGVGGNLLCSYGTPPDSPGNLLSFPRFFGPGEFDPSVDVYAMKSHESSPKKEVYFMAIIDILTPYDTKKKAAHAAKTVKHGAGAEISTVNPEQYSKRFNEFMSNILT
Description: Trans-FI P kinase assay PIP4K2B (PIP4KtypeIIB inhibition assay). The test is classed as biochemical. The conditions noted are these: Table 4; compounds listed under IC50 range headings; 100 uM GTP, 5 nM PIP4KIIB; read-out: Trans-FI P kinase assays: PIP4K2B IC50. In short, it runs like this:
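Transcreener FI fluorescence, converted to GDP by calibration, tracked product from 5 nM E. coli-expressed GST-PIP4KIIB acting on 80 uM PI5P (DOPE carrier) with 100 uM GTP. Compound (top 4.8 uM final, 5% DMSO) was preincubated 1 h at 27 C before the 2 h reaction; IC50 fitted from residual activity.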

Test [2] addresses T2, GST tagged PIP4KtypeIIA (Homo sapiens, UniProt P48426).
T2 construct: made in house; host or cells: E. coli
T2 sequence (P48426 1-406): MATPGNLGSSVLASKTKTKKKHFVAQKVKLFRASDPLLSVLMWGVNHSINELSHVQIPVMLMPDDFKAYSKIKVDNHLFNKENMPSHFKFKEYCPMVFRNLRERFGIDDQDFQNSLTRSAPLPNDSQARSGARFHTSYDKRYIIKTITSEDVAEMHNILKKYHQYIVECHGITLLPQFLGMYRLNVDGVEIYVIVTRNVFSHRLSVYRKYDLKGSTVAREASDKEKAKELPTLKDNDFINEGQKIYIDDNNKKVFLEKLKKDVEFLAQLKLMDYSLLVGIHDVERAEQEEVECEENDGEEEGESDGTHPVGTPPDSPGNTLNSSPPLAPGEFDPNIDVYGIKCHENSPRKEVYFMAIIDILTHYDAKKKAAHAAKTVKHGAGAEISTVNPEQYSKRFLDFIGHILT
The test is described as follows: ADP-glo kinase assay PIP4K 2A (PIP4KtypeIIA inhibition assay). The test is classed as biochemical. As to conditions: Table 3; compounds listed under IC50 range headings; 10 uM ATP, 0.5 nM PIP4KIIA. The procedure, abridged:
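Read-out was ADP-Glo luminescence converted to μM ADP, with IC50 plotted as % of no-inhibitor activity against log concentration. Reactions contained 10 μM ATP, 80 μM PI5P with DOPE carrier, and 0.5 nM GST-tagged PIP4KIIA (E. coli-expressed) in pH 7.3 HEPES/MgCl2 buffer with 5% DMSO. Enzyme and compound (≤4.8 μM) were preincubated 1 h at 27 °C before the 1 h reaction.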

For test [3], the target named is T3, PIP4K2A (full length protein, SignalChem) (Homo sapiens, UniProt P48426).
T3 construct: 4 nM PIP4K2A (full length protein, SignalChem); purchased SignalChem
T3 sequence (P48426 1-406): T2 sequence (P48426 1-406)
Description: Kinase Assay PIP4K2 A (Sprint); ADP-Glo biochemical assay. The conditions noted are these: Table 2; compounds listed under IC50 range headings. The procedure, abridged:
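ADP-Glo luminescence detected ADP after a 1 h RT reaction started with 60 μM ATP solution. Before that, full-length PIP4K2A (4 nM in mix) with 100 μM PI(5)P diC8 was pre-incubated 15 min with compounds in MOPS buffer pH 7.2, 25 mM MgCl2, 0.005% Tween 20. IC50 derived from % inhibition relative to DMSO over 10 three-fold concentrations.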
Background: ADP-Glo first removes unused ATP, then detects ADP through luciferase.

The term IC50 denotes the point on the concentration scale where inhibition reaches its midpoint. For the compound `CN(C)C(=O)c1cc2c(-c3cncc(-c4ccc(N5CCCC5=O)cc4)c3)ccnc2o1` [Example 50, N,N-dimethyl-4-(5-(4-(2-oxopyrrolidin-1-yl)phenyl)pyridin-3-yl)furo[2,3-b]pyridine-2-carboxamide], the figures for the IC50 in test [1], in test [2] and in test [3] were 0.01 to 0.1 µM, 0.1 to 1 µM and 0.005 to 0.1 µM, respectively.
Taken in the same sequence, the figures for `CCOc1cnc2[nH]ccc2c1-c1cncc(-c2ccc(N3CCCC3=O)cc2)c1` [Example 59, 1-(4-(5-(5-ethoxy-1H-pyrrolo[2,3-b]pyridin-4-yl)pyridin-3-yl)phenyl)pyrrolidin-2-one] were 0.1 to 1 µM, 1 to 2.5 µM and 0.1 to 1 µM.
Take `Cn1cc(-c2cncc(-c3ccc(N4CCCC4=O)cc3)c2)c2cn[nH]c2c1=O` [Example 54, 6-methyl-4-(5-(4-(2-oxopyrrolidin-1-yl)phenyl)pyridin-3-yl)-1,6-dihydro-7H-pyrazolo[3,4-c]pyridin-7-one]: the IC50 is 0.1 to 1 µM in test [1], 0.1 to 1 µM in test [2] and 0.005 to 0.1 µM in test [3].
`Nc1ncc(-c2csc3ncccc23)cc1-c1ccc(N2CCCC2=O)cn1` [Example 23, 1-(2′-amino-5′-(thieno[2,3-b]pyridin-3-yl)-[2,3′-bipyridin]-5-yl)pyrrolidin-2-one]: the results for the half-inhibitory concentration (IC50) in test [1], in test [2] and in test [3] were 0.1 to 1 µM, 0.1 to 1 µM and 0.005 to 0.1 µM, respectively.
With `Cn1cc(-c2cncc(-c3ccc(N4CCCC4=O)cc3)c2)c2cccnc21` [Example 39, 1-(4-(5-(1-methyl-1H-pyrrolo[2,3-b]pyridin-3-yl)pyridin-3-yl)phenyl)pyrrolidin-2-one], the half-inhibitory concentration (IC50) lay within 0.1 to 1 µM in test [1], 0.1 to 1 µM in test [2] and 0.005 to 0.1 µM in test [3].
Take `CN(CC1CCNCC1)C(=O)c1ccc(-c2cncc(-c3ccncc3)c2)cc1` [Example 179, 4-([3,4′-bipyridin]-5-yl)-N-methyl-N-(piperidin-4-ylmethyl)benzamide]: the IC50 in test [1] is more than 5 µM; in test [2], more than 5 µM; in test [3], less than 5 µM.
Take `CN(C)C(=O)c1ccc(-c2cncc(-c3ccnc4ccncc34)c2)cc1` [Example 7, 4-(5-(1,6-naphthyridin-4-yl)pyridin-3-yl)-N,N-dimethylbenzamide]: the IC50 is more than 5 µM in test [1], more than 5 µM in test [2] and 2.5 to 5 µM in test [3].
For `O=C1CCCN1c1ccc(-c2cncc(-c3ccnc4cn[nH]c34)c2)cc1` [Example 220, 1-(4-(5-(2H-pyrazolo[4,3-b]pyridin-7-yl)pyridin-3-yl)phenyl)pyrrolidin-2-one], the IC50 in test [1], in test [2] and in test [3] was 0.1 to 1 µM in each case.
Consider `O=C(NC1COC1)c1cc2c(-c3cncc(-c4ccc(N5CCCC5=O)cc4)c3)ccnc2o1` [Example 166, N-(oxetan-3-yl)-4-(5-(4-(2-oxopyrrolidin-1-yl)phenyl)pyridin-3-yl)furo[2,3-b]pyridine-2-carboxamide], for which the 50% inhibitory concentration (IC50) was 0.1 to 1 µM in test [1], 0.01 to 0.1 µM in test [2] and 0.005 to 0.1 µM in test [3].
Taken in the same sequence, the figures for `CN(C)C(=O)c1ccc(-c2cc(-c3ccnc(CNC(=O)c4cccc(N)c4)c3)cnc2N)nc1` [Example 191, 2′-amino-2″-((3-aminobenzamido)methyl)-N,N-dimethyl-[2,3′:5′,4″-terpyridine]-5-carboxamide] were 1 to 2.5 µM, more than 5 µM and 1 to 2.5 µM.
On the same counts, the results for `CNC(=O)c1cc2c(-c3cncc(-c4ccc(C(=O)N(C)C)cc4)c3)ccnc2o1` [Example 14, 4-(5-(4-(dimethylcarbamoyl)phenyl)pyridin-3-yl)-N-methylfuro[2,3-b]pyridine-2-carboxamide] are 0.1 to 1 µM, 0.1 to 1 µM and 0.1 to 1 µM.
With `CN(C)C(=O)c1ccc(-c2cncc(-c3c[nH]c4ncc(Cl)cc34)c2)cc1` [Example 12, 4-(5-(5-chloro-1H-pyrrolo[2,3-b]pyridin-3-yl)pyridin-3-yl)-N,N-dimethylbenzamide], the IC50 in test [1] was in the range of 0.1 to 1 µM; in test [2], 0.1 to 1 µM; in test [3] it was 0.005 to 0.1 µM.
On to `Cn1cc(-c2cncc(-c3ccc(N4CCCC4=O)cc3)c2)c2cc(N3CCCC3=O)cnc21` [Example 77, 1-(1-methyl-3-(5-(4-(2-oxopyrrolidin-1-yl)phenyl)pyridin-3-yl)-1H-pyrrolo[2,3-b]pyridin-5-yl)pyrrolidin-2-one], for which the results for the IC50 in test [1], in test [2] and in test [3] were 0.1 to 1 µM, 0.1 to 1 µM and 0.005 to 0.1 µM, respectively.
In the case of `CN(C)C(=O)c1ccc(-c2cc(-c3cnc4c(c3)c(-c3cncs3)cn4C)cnc2N)nc1` [Example 125, 2′-amino-N,N-dimethyl-5′-(1-methyl-3-(thiazol-5-yl)-1H-pyrrolo[2,3-b]pyridin-5-yl)-[2,3′-bipyridine]-5-carboxamide], the IC50 is 2.5 to 5 µM in test [1], 0.001 to 0.01 µM in test [2] and 0.1 to 1 µM in test [3].
For `Cn1ncc2c(-c3cncc(-c4ccc(N5CCCC5=O)cc4)c3)cn(CC3CCOCC3)c(=O)c21` [Example 70, 1-methyl-4-(5-(4-(2-oxopyrrolidin-1-yl)phenyl)pyridin-3-yl)-6-((tetrahydro-2H-pyran-4-yl)methyl)-1,6-dihydro-7H-pyrazolo[3,4-c]pyridin-7-one], the IC50 in test [1] lay in the range of 0.1 to 1 µM; in test [2], 0.1 to 1 µM; in test [3], 0.005 to 0.1 µM.
Regarding `CN(C)C(=O)c1ccc(-c2cc(-c3cc(Nc4cccc(NC(=O)c5cccc(N)c5)c4)ncn3)cnc2N)nc1` [Example 219, 2′-amino-5′-(6-((3-(3-aminobenzamido)phenyl)amino)pyrimidin-4-yl)-N,N-dimethyl-[2,3′-bipyridine]-5-carboxamide], the IC50 fell in the range of 0.1 to 1 µM in test [1], 1 to 2.5 µM in test [2] and 0.1 to 1 µM in test [3].
On to `CC(O)c1cnc2[nH]cc(-c3cncc(-c4ccc(N5CCCC5=O)cc4)c3)c2c1` (stereo not drawn) [Example 48, 1-(4-(5-(5-(1-hydroxyethyl)-1H-pyrrolo[2,3-b]pyridin-3-yl)pyridin-3-yl)phenyl)pyrrolidin-2-one], for which the values for the IC50 in test [1], in test [2] and in test [3] were 0.01 to 0.1 µM, 0.1 to 1 µM and 0.005 to 0.1 µM, respectively.
On to `COC(=O)c1cc2c(-c3cnc(N)c(-c4ccc(C(=O)N(C)C)cn4)c3)ccnc2[nH]1` [Example 126, methyl 4-(2′-amino-5-(dimethylcarbamoyl)-[2,3′-bipyridin]-5′-yl)-1H-pyrrolo[2,3-b]pyridine-2-carboxylate], for which the results for the IC50 in test [1], in test [2] and in test [3] were 0.01 to 0.1 µM, 0.01 to 0.1 µM and 0.005 to 0.1 µM, respectively.
In the case of `CN(C)C(=O)c1ccc(-c2cc(-c3ccnc4[nH]c(C(=O)NCc5cccnc5)cc34)cnc2N)nc1` [Example 136, 4-(2′-amino-5-(dimethylcarbamoyl)-[2,3′-bipyridin]-5′-yl)-N-(pyridin-3-ylmethyl)-1H-pyrrolo[2,3-b]pyridine-2-carboxamide], the IC50 was in the range of 0.01 to 0.1 µM in test [1], 0.1 to 1 µM in test [2] and 0.005 to 0.1 µM in test [3].
Taken in the same sequence, the figures for `CN(C)C(=O)c1ccc(-c2cncc(-c3c[nH]c4ncccc34)c2)cc1` [Example 10, 4-(5-(1H-pyrrolo[2,3-b]pyridin-3-yl)pyridin-3-yl)-N,N-dimethylbenzamide] were 0.1 to 1 µM, 0.1 to 1 µM and 0.1 to 1 µM.
On the same counts, the results for `Cn1ncc2c(-c3cnc(N)c(-c4ccc(N5CCCC5=O)cc4)c3)cn(CC3CCOCC3)c(=O)c21` [Example 92, 4-(6-amino-5-(4-(2-oxopyrrolidin-1-yl)phenyl)pyridin-3-yl)-1-methyl-6-((tetrahydro-2H-pyran-4-yl)methyl)-1,6-dihydro-7H-pyrazolo[3,4-c]pyridin-7-one] are 0.01 to 0.1 µM, 0.01 to 0.1 µM and 0.005 to 0.1 µM.
